# Assays:
# [1] = tested on: retrogradely labeled D1-MSNs; test: Striatal slice whole-cell recordings of retrogradely labeled MSNs; type: cell-based, mice; conditions: AAV8R12-G88P3-HA-hM3Dq-2A-EYFP; CNO 10 μM
# Description: Mice from different groups were anesthetized with […] isoflurane, and then decapitated. The brain was quickly extracted and placed in ice-cold N-methyl-D-glucamine (NMDG) cutting solution containing (in mM): 92 NMDG, 2.5 KCl, 25 NaHCO3, 1.25 NaH2PO4, 4.5 D-Glucose, 20 HEPES, 5 L-ascorbic acid, 3 Na-pyruvate, 2 Thiourea, 10 MgSO4, 0.5 CaCl2). The pH was adjusted to 7.2±0.1 using HCl and the osmolarity was adjusted to 305±5 mosmol/L using NMDG. The solution was bubbled with 95% O2/5% CO2 prior to use. Coronal striatum slices were cut in 250-[…] thickness with a vibratome slicer (Leica, VT1200 S), and then incubated in artificial cerebrospinal fluid (aCSF) saturated with 95% O2/5% CO2 for at least 45 min at 37° C. before recording. The aCSF contains (in mM) 125 NaCl, 1.25 KCl, 25 NaHCO3, 1.25 KH2PO4, 25 D-Glucose, 2 CaCl2) and 1 MgCl2, supplemented with 2 mM Na-pyruvate, 3 mM Myo-inositol and 0.4 mM L-ascorbic acid.
# The acute striatum slice was transferred to the recording chamber with a constant perfusion of oxygenized aCSF at the rate of 3 ml/min. Neurons were visualized using an upright microscope (Olympus, BX-51) with a 40× water immersion objective at room temperature (˜25° C.). […] Neurons were quickly visualized under fluorescence microscope and then patch clamp were achieved under infrared light illumination and CCD camera. […]
# [2] = tested on: c-Fos+ cells in the SNr; test: c-Fos staining in the SNr after CNO; type: in vivo, mice; conditions: AAV8R12-G88P3-HA-hM3Dq
# [3] = molecular target: T1, rM3Ds (Rattus norvegicus, UniProt P08483, A177S/A238G/A489L/DEL261-437/DEL441-478/E258S/I253V/I483M/INS256[…]/K178L/K182A/K255R/K484R/K486H/L173F/L482A/M480V/R171S/R176Q/R179M/S481M/T174R/T181R/T257A/Y148C); test: Electrophysiological recording in caudate/putamen after intramuscular CNO, rM3Ds macaques; type: in vivo
# T1 sequence (P08483 with tags, fused parts or gaps Y148C/R171S/L173F/T174R/R176Q/A177S/K178L/R179M/T181R/K182A/A238G/I253V/K255R/INS256[…]/T257A/E258S/DEL261-437/DEL441-478/M480V/S481M/L482A/I483M/K484R/K486H/A489L): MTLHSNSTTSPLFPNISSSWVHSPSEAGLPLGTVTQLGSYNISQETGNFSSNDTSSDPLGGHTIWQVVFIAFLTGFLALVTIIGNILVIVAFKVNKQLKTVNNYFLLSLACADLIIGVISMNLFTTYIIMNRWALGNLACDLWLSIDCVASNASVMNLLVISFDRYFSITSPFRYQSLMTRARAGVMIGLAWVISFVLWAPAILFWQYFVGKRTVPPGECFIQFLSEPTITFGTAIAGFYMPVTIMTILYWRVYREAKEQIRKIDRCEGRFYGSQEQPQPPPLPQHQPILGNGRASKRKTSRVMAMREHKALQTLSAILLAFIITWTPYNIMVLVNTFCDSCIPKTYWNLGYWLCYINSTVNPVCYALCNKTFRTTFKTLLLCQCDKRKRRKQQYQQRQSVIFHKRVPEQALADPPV
# Procedure: Electrophysiological recording was performed through a recording chamber while the monkey was anesthetized. Neural responses were recorded by a 16-channel linear probe (Plexon Inc, Uprobe) driven by a mechanical microdrive (Alpha Omega, FlexMT). Signals were passed through a head stage (Plexon Inc, HST/16V-G20 LN) and then split and filtered between 300 Hz and 5 kHz to identify spiking activity with an amplifier system (Plexon Inc, OmniPlex). Detected spikes were then sorted by commercially available software (Plexon Inc, Offline Sorter) for further analysis. To quantify the effect of CNO/DCZ injection, neural activity was recorded for 60 minutes following CNO/DCZ injection. The response time-course for each channel was obtained by counting the spikes within every 10-minute window and then normalizing to the maximal.
# To determine the effect of CNO/DCZ injection on the direction of signal change, we performed Pearson correlation between neural responses and time using the ‘corr’ function in Matlab, which generates the correlation coefficient ‘r’ and significant level ‘p’. A neuron was considered to have “Increased” activity when r>0 and p<[…]; and considered to have “Decreased” activity when r<0 and p<0.05. Otherwise, neurons were considered to be “Unchanged” in their neural activities. The responses of all increased neurons were then averaged after being normalized by the maximal response (Crowe et al., 2014; Dai and Wang, 2018; Hirokawa et al., 2019) following CNO/DCZ injection, and then plotted as a function of time to generate the normalized population response. […]
# [4] = 38 total cells in the caudate/putamen
# [5] = monkey CM048, 38 cells in caudate
compound,measurement,setting,value
"C[N+]1([O-])CCN(C2=Nc3cc(Cl)ccc3Nc3ccccc32)CC1 [CNO, clozapine N-oxide]",excitability of transduced MSNs,[1],augmentation of excitability
same,c-Fos+ cells in the right SNr,[2]; CNO intraperitoneal,significant increase
same,number of nigral c-Fos+ cells,[2]; intracranial CNO infusions,No significant changes
same,cells activated (FIG. 12N),[3]; [4],50%
same,cells inactivated (FIG. 12N),[3]; [4],13.2%
same,cells unchanged (FIG. 12N),[3]; [4],36.8%
same,neuronal activity in retrogradely labeled D1-MSNs (opto-tagging),"[3]; anesthetized macaques, AAV8R12-G88P7-HA-rM3Ds-2A-Cre",effectively induced an increase of neuronal activity
same,cells activated (FIG. 12F),[3]; [5],65.8%
same,cells inactivated (FIG. 12F),[3]; [5],7.9%
same,cells unchanged (FIG. 12F),[3]; [5],26.3%

# Reference: patent publication US20250382588A1, “CHIMERIC AAV AND USES THEREOF” (priority 2023, published 2025)
